Measurements reported in patent US8497266B2, “3-(3-pyrimidin-2-ylbenzyl)-1,2,4-triazolo[4,3-b]pyridazine derivatives as MET kinase inhibitors” (Merck Patent GmbH, priority 2008, dated 2013).

What was measured:
Met kinase [1] = biological target: T1, Met kinase (Homo sapiens, UniProt P08581); assay: Met kinase inhibition (cell); type: cell-based
Target sequence in this assay (P08581 25-1390): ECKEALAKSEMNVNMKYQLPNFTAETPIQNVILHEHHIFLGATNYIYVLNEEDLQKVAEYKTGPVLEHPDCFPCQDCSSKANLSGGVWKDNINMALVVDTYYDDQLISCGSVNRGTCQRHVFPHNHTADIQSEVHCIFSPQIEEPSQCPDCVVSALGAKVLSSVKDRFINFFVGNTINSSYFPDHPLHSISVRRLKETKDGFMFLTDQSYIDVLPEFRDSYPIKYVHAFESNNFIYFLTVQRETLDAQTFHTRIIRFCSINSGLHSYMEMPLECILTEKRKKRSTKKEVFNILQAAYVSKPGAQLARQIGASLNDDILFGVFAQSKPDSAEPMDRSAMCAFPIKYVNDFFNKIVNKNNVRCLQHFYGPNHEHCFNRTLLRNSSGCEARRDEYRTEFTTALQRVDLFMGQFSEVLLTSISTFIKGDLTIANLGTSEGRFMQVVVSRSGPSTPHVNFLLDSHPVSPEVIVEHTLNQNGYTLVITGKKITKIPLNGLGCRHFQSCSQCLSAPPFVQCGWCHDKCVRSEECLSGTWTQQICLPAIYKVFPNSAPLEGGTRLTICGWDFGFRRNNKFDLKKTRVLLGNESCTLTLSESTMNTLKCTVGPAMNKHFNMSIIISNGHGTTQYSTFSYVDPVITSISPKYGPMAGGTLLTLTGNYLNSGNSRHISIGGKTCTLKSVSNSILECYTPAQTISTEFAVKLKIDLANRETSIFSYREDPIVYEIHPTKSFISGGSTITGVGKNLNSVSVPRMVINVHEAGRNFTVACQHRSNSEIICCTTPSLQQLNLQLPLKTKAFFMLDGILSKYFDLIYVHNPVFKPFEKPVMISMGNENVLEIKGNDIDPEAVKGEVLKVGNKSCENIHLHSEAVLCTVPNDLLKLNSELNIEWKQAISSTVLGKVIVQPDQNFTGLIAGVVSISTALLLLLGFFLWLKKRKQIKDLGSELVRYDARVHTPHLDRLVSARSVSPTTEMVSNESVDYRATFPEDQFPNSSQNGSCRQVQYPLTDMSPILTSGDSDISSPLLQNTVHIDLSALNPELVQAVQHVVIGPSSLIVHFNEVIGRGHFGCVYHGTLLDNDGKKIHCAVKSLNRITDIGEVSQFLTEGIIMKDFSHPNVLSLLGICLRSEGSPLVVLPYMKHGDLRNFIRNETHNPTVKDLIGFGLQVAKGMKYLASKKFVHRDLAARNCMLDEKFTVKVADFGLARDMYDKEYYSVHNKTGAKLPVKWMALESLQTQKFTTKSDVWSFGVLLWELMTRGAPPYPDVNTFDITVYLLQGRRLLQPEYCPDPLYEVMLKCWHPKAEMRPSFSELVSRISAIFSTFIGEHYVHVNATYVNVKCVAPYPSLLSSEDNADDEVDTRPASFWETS

Met kinase [2] = biological target: T1, Met kinase; assay: Met kinase inhibition, flashplate method (enzyme); type: biochemical; set-up: 6His (N); purchased Upstate 14-526; host or cells: Sf21 insect cells (S. frugiperda), baculovirus
Text: According to the manufacturer's data (Met, active, Upstate, catalogue No. 14-526), Met kinase is expressed for the purposes of protein production in insect cells (Sf21; S. frugiperda) and subsequent affinity-chromatographic purification as “N-terminal 6His-tagged” recombinant human protein in a baculovirus expression vector.
The test plates used are 96-well Flashplate® microtitre plates from Perkin Elmer (Cat. No. SMP200). The components of the kinase reaction described below are pipetted into the assay plate. The Met kinase and the substrate poly Ala-Glu-Lys-Tyr, (pAGLT, 6:2:5:1), are incubated for 3 hrs at room temperature with radioactively labelled ^33P-ATP in the presence and absence of test substances in a total volume of 100 μl. The reaction is terminated using 150 μl of a 60 mM EDTA solution. After incubation for a further 30 min at room temperature, the supernatants are filtered off with suction, and the wells are washed three times with 200 μl of 0.9% NaCl solution each time. The measurement of the bound radioactivity is carried out by means of a scintillation measuring instrument (Topcount NXT, Perkin-Elmer).
The full value used is the inhibitor-free kinase reaction. This should be approximately in the range 6000-9000 cpm. The pharmacological zero value used is staurosporin in a final concentration of 0.1 mM. The inhibitory values (IC50) are determined using the RS1_MTS program.
Kinase reaction conditions per well: • 30 μl of assay buffer • 10 μl of substance to be tested in assay buffer with 10% of DMSO • 10 μl of ATP (final concentration 1 μM cold, 0.35 μCi of ^33P-ATP) • 50 μl of Met kinase/substrate mixture in assay buffer; • (10 ng of enzyme/well, 50 ng of pAGLT/well) • Solutions used: • Assay buffer: • 50 mM HEPES • 3 mM magnesium chloride • 3 μM sodium orthovanadate • 3 mM manganese(II) chloride • 1 mM dithiothreitol (DTT) • pH=7.5 (to be set using sodium hydroxide) • Stop solution: • 60 mM Titriplex III (EDTA) • ^33P-ATP: Perkin-Elmer; • Met kinase: Upstate, Cat. No. 14-526, Stock 1 μg/10 μl; spec. activity 954 U/mg; • Poly-Ala-Glu-Lys-Tyr, 6:2:5:1: Sigma Cat. No. P1152 In-Vivo Tests
Target sequence in this assay (P08581 956-1390 limits assumed): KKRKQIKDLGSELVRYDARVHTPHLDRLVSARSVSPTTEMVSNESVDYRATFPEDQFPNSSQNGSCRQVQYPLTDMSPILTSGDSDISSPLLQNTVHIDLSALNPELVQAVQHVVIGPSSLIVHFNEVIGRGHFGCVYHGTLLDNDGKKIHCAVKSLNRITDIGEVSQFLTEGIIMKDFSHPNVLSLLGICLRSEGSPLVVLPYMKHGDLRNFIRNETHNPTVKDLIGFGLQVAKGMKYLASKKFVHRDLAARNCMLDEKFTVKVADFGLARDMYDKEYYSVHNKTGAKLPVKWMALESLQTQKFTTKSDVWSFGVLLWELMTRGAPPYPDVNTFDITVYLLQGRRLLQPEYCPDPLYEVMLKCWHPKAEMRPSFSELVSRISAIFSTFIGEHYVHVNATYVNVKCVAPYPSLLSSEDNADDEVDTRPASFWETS

Row | IC50 (Met kinase [1]) | IC50 (Met kinase [2]) | SMILES
1 | 1 to 100 nM | 1 to 100 nM | Cn1cc(-c2ccc3nnc(C(F)(F)c4cccc(-c5ncc(Br)cn5)c4)n3n2)cn1 [Compound A3, 3-{[3-(5-bromopyrimidin-2-yl)phenyl]difluoromethyl}-6-(1-methyl-1H-pyrazol-4-yl)-1,2,4-triazolo[4,3-b]pyridazine]
2 | 1 to 100 nM | 1 to 100 nM | Cn1cc(-c2ccc3nnc(Cc4cccc(-c5ncc(Br)cn5)c4)n3n2)cn1 [Compound A1, 3-[3-(5-bromopyrimidin-2-yl)benzyl]-6-(1-methyl-1H-pyrazol-4-yl)-1,2,4-triazolo[4,3-b]pyridazine]
3 | 1 to 100 nM | 1 to 100 nM | Cc1ccc2nnc(C(F)(F)c3cccc(-c4ncc(Br)cn4)c3)n2n1 [Compound A27, 3-{[3-(5-bromopyrimidin-2-yl)phenyl]difluoromethyl}-6-methyl-1,2,4-triazolo[4,3-b]pyridazine]
